Assay results taken from patent US9969674B2, “MMF-derivatives of ethyleneglycols” (RATIOPHARM GMBH, priority 2014, dated 2018).
Values joined by “and” are separate entries in the source; they are usually repeats but may differ in a detail not shown here. Equal values may be shown once. Where a name gives a salt, the structure may show the parent alone.

How the values were obtained:
[1] = Kinetics of MMF-release during incubation in intestinal fluid of the minipig; type: in vitro ADME, Göttingen SPF minipig; settings: for release of the second equivalent of MMF / release kinetics of the first equivalent of MMF: diluted minipig small intestinal fluid pH 6.8, 37° C., compared with DMF (FIG. 1); for release kinetics of the first equivalent of MMF: time 0-30 min
Protocol: Example 7: Investigation and Comparison of the Kinetics of MMF-Release of the Different Compounds of the Present Invention and DMF During Incubation in Intestinal Fluid of the Minipig
Intestinal tissue/fluid and enterocyte samples were taken from a 10 month old, female Göttingen SPF minipig. The body weight was 21 kg. The minipig was fasted for approximately 28 hours before sampling of intestinal fluid/tissues and enterocytes. On the day of sampling, the minipig was weighed and anaesthetised by an intramuscular injection in the neck or in the left hind leg (about 0.3 ml per kg body weight) of a mixture of Zoletil 50 Vet., Virbac, France (125 mg tiletamine and 125 mg zolazepam), Rompun Vet., Bayer, Germany (20 mg xylazine/ml, 6.5 ml), Ketaminol Vet., Veterinaria AG, Switzerland (100 mg ketamine/ml, 1.5 ml) and Methadon DAK, Nycomed Danmark, Denmark (10 mg methadon/ml, 2.5 ml). The animal was killed by exsanguination before sampling of intestinal fluid. An intestinal segment was ligated at both ends before removal. The isolated tissue was placed in isotonic saline and opened by a longitudinal cut for sampling of intestinal fluid.
The intestinal tissue from each segment was transferred into a Centrifuge Tube, immersed in 10 ml 50 mM phosphate buffer, pH 6.8 and frozen at −70° C.
• Instrument: Acquity UPLC system coupled with a TQ detector (triple quadruple mass spectrometer) UPLC Method: Column: Phenomenex Kinetex C18, 100 A, 2.6 μm (150×4.6 mm) flow: 0.4 ml/min split: appr. 100 μl/min to MS Temperature: 30° C. solvent system (isocratic): • Solvent A 25% water with 0.1% acetic acid • Solvent B 75% methanol with 0.1% acetic acid stoptime: 6 min autosampler temperature: 8° C. injection volume: 4 μl retention time: MN/IF: 4.3 min • MEF: 4.7 min Mass Spectrometry software: Masslynx 4.1 detection mode: electrospray/negative ions (ESP−) capillary voltage: 2.3 kV source temperature: 100° C. desolvation temperature: 450° C. cone voltage: 18 V desolvation gas: N2 650 L/h cone gas: N2, 20 L/h collision gas: argon, appr. 3.3*10^−3 mbar collision energy: 11 eV MRM [m/z]: 128.94>85.03 Monomethylfumarate dwell: 200 msec • 142.99>99.06 Monoethylfumarate (ISTD) dwell: 200 msec 7.2.1.2 Stock and Calibration Solutions
Stock (SS), working (WS) and calibration solutions of the analyte monomethyl fumarate (MMF) and the internal standard (ISTD) […] (MEF) were prepared as described below. • SSMMF: In a 10 ml volumetric flask, 6.5 mg MMF (Batch: MKRJ0642V/Aldrich) were dissolved in methanol and made up to volume (c=650 μg/ml) • SSISTD: In a 100 ml volumetric flask, 10 mg MEF (Batch: STBC5219V/Aldrich) were dissolved in methanol and made up to volume (c=100 μg/ml) • WSISTD: 100 μl SSISTD were transferred into a 10 ml volumetric flask and made up to volume with acetonitrile (c=1,000 ng/ml);
Calibration solutions were prepared by serial dilution of SSMMF; diluted small intestinal fluid (diluted by 1/20 v/v with 50 mM KH2PO4, pH 6.8; (dil IF) was used as matrix. The dilution scheme is given below:
50 μl sample (calibration solution or sample of an incubation experiment with MMF prodrugs) was mixed with 50 μl WSISTD, 20 μl formic acid and 100 μl acetonitrile. This mixture was vortexed for 15 sec and centrifuged (13,000 rpm, 3 min). Thereafter, 4 μl of the supernatant were subjected to LC-MS analysis.
Stock solutions were prepared in DMSO or, for one compound, in DMSO with 10% (v/v) water. Concentrations in stock solutions were […] for compounds with one, two and three molar MMF equivalents.
In a HPLC glass vial, 8 μl of stock solution were mixed with 792 μl dil IF and the mixture was stirred (250 rpm) in a water bath (T=37° C.).
Immediately after mixing as well as at t=15 min, 30 min, 60 min, 90 min and 120 min, 50 μl were withdrawn and prepared for LC-MS analysis as described in chapter. 2.1.3. […]

[2] = system: MOG35-55-induced experimental autoimmune encephalomyelitis (EAE); test: MOG35-55-induced experimental autoimmune encephalomyelitis (EAE) in C57BL/6 mice; type: in vivo; settings: for body weight: prophylactic oral treatment from day 1, observation day 1-13 (FIG. 2); for development of clinical symptoms (clinical score): prophylactic oral treatment from day 1, observation day 1-13, 11.54 mM dose formulation, 10 ml/kg (FIG. 3)
Text: Assessment and comparison of the efficacy of compounds of the invention and DMF (reference) in MOG35-55-induced experimental autoimmune encephalomyelitis (EAE) in C57BL/6 mice: • Test system: male C57BL/6 mice, 12 weeks old; 10 animals per treatment group; • Induction of EAE: Day −1—subcutaneous injection of MOG35-55, suspended in complete Freund's adjuvans and intraperitoneal injection of pertussis toxin. • Day 3—intraperitoneal injection of pertussis toxin. • Treatment: Dimethylfumarate and test substances or vehicle only were administered via oral route. Test substances were dissolved or suspended in 0.5% hydroxyethylcellulose (dissolved in 50 mM potassium dihydrogenphosphate, pH 5.0). Drug concentration in dose formulations: 11.54 mM; • Dose volume: 10 ml/kg body weight; • Start of treatment: Day 1 • Observations (clinical Observations were recorded daily between day 1 and 13. score and body weight): • Clinical score: grade 0-10; 0 (=no impairments), 1 (normal movement; limp tail: proximal ⅔ of the tail is limp and droopy), 2 (normal movement; whole tail is limp; 3 (wobbly walk; absent righting reflex), 4 (gait ataxia), 5 (mild paraparesis), 6 (moderate paraparesis), 7 (severe paraparesis or paraplegia), 8 (tetraparesis), 9 (moribund), 10 (death).

[3] = system: Caco-2 monolayers; test: in vitro
Protocol: (§1) The membrane permeability was investigated in Caco-2 monolayers. DMF was investigated in a separate experiment for comparison.
(§2) Based on the assumption that in vivo, the intact molecules will be pre-systemically metabolized, the permeability test was performed only in the apical→basolateral direction. The test concentration in the apical medium was 250 μM. […] Sampling time points were 15, 45 and 90 min.

[4] = in vitro; settings: human, Caco-2
Protocol: as §1, §2

[5] = In vivo pharmacokinetics of MMF after oral administration in NMRI mice; settings: female, mouse, 65.3 mg/kg
Protocol: The pharmacokinetics of MMF after administration of the compound of Example 1 and DMF for comparison was investigated in female NMRI mice (3 animals per group). The test compound was dissolved in DMSO/PEG300 (20/80) and administered p.o. (gavage) at a dose volume of 10 ml/kg. DMF was given at a dose of 45 mg/kg. The test compound was dosed at a MMF-equivalent dose, i.e. 65.3 mg/kg. Blood samples were taken at 0.25, 0.5, 1.0, 2.0, 4.0, 6.0 and 8.0 h after drug administration.
Pharmacokinetic parameters, derived by non-compartmental analysis for test compound (Example 1): […]

SMILES | body weight [2] | development of clinical symptoms (clinical score) [2] | permeability category compared to the reference molecules ([3]; Caco-2) | release of the second equivalent of MMF [1] | release kinetics of the first equivalent of MMF [1] | other results
COC(=O)/C=C/C(=O)OC(C)OC(=O)/C=C/C(=O)OC [(E)-But-2-enedioic acid 1-((E)-3-methoxycarbonyl-acryloyloxy)-ethyl ester methyl ester, reference compound] |  |  |  |  |  | release kinetics of MMF ([1]; incubation in intestinal fluid of the minipig, compared with DMF (FIG. 8)): considerable faster than that of DMF
COC(=O)/C=C/C(=O)OC [DMF, Dimethyl fumarate] | remained stable | protected from the development of clinical symptoms | moderate permeability |  |  | Recovery [%] mean ± s.d. ([3]; Caco-2): 11.6 ± 1.0%; Papp × 10^−6 [cm/sec] mean ± s.d. ([3]; human, Caco-2, 250 μM): 1.8 ± 0.2 10^−6 cm/sec
COC(=O)/C=C/C(=O)OCCOCCOCCOCCOC(=O)/C=C/C(=O)OC [Example 1, (E)-But-2-enedioic acid 2-(2-{2-[2-((E)-3-methoxycarbonyl-acryloyl-oxy)-ethoxy]-ethoxy}-ethoxy)-ethyl ester methyl ester] | remained stable | protected from the development of clinical symptoms | moderate permeability | released more slowly | essentially identical to that of DMF | Papp A→B at 250 μM [4]: 1 ± 0.1 ×10⁻⁶ cm/s; recovery at 90 min, 250 µM [4]: 17.1%; AUC(0-inf) [5]: 5990 ng·h/mL
COC(=O)/C=C/C(=O)OCCOCCOCCOC(=O)/C=C/C(=O)OC [Example 2, (E)-But-2-enedioic acid 2-{2-[2-((E)-3-methoxycarbonyl-acryloyl-oxy)-ethoxy]-ethoxy}-ethyl ester methyl ester] |  |  |  | released more slowly | essentially identical to that of DMF | 
COC(=O)/C=C/C(=O)OCCOCCOC(=O)/C=C/C(=O)OC [Example 3, (E)-But-2-enedioic acid 2-[2-((E)-3-methoxycarbonyl-acryloyloxy)-ethoxy]-ethyl ester methyl ester] |  |  |  | released more slowly | essentially identical to that of DMF | 
C[C@]12CC[C@H]3[C@@H](CCC4=CC(=O)CC[C@@]43C)[C@@H]1CC[C@@H]2O [Testosterone, testosterone] |  |  |  |  |  | Recovery [%] mean ± s.d. ([3]; direction a-b): 67.3 ± 1.2% and 62.5 ± 2.1%; Recovery [%] mean ± s.d. ([3]; direction b-a): 94.9 ± 0.9% and 76.1 ± 4.5%
